{"source": "paper PMC11361638", "about": "“Chemical genetic screens reveal defective lysosomal trafficking as synthetic lethal with NF1 loss” (Journal of Cell Science, 2024)", "target": "T1, BORCS7 (Homo sapiens, UniProt Q96B45)", "T1 construct": "endogenous full-length protein in U87-MG cells, subunit of the eight-protein BORC", "T1 sequence (Q96B45 1-106)": "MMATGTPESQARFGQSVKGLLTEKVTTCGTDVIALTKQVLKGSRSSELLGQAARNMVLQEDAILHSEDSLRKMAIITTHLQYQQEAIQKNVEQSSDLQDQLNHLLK", "assay": "click-chemistry pulldown on alkyne resin, LC-MS/MS", "assay_type": "cell-based", "details": "U87-MG cells treated with 2 µM for 2 h, lysed in 8 M urea; labelled compound; binding subunit within BORC not resolved", "data": [{"smiles": "Cn1cnnc1S/C=C/C(=O)c1ccc(CCN=[N+]=[N-])cc1", "note": "[az-Y102]", "values": [{"measurement": "iBAQ area ratio", "value": "Click-chemistry enriched pulldown results for p21 and BORCS7."}]}]}
